One may read the pKa as the negative logarithm of the acid dissociation constant. As a reminder, the IC50 is the concentration needed to halve the response being measured. Lower therefore signals greater potency.

One series has as its system Serum cholesterol. The experiment in a line: Serum cholesterol analysis in ovariectomized rats. As to conditions: oral, daily for 4 days, decrease versus ovariectomized controls. Format: in vivo, Sprague Dawley rats.
Series [1] has as its system ovariectomized rats. The experiment in a line: Osteoporosis Test Procedure: 35-day ovariectomized rat, femur density. Format: in vivo, Sprague Dawley rats. The settings on record: oral, in 20% hydroxypropyl β-cyclodextrin, daily for 35 days; result in words. As for the experimental part: Following the General Preparation Procedure, infra, the rats are treated daily for 35 days (6 rats per treatment group) and sacrificed by carbon dioxide asphyxiation on the 36th day. The 35 day time period is sufficient to allow maximal reduction in bone density, measured as described herein. At the time of sacrifice, the uteri are removed, dissected free of extraneous tissue, and the fluid contents are expelled before determination of wet weight in order to confirm estrogen deficiency associated with complete ovariectomy. […] The uteri are then placed in 10% neutral buffered formalin to allow for subsequent histological analysis. The right femurs are excised and digitilized x-rays generated and analyzed by an image analysis program (NIH image) at the distal metaphysis. The proximal aspect of the tibiae from these animals are also scanned by quantitative computed tomography. In accordance with the above procedures, compounds of the present invention and ethynyl estradiol (EE2) in 20% hydroxypropyl β-cyclodextrin are orally administered to test animals.

Series [2] relates to Uterine Eosinophil Peroxidase (EPO). The series is described as follows: Uterine Eosinophil Peroxidase (EPO) Assay in ovariectomized rats. As to conditions: for Uterine Eosinophil (Vmax): oral, daily for 4 days, eosinophil peroxidase Vmax.
Excerpt: (§1) Seventy-five day old female Sprague Dawley rats (weight range of 200 to 225g) are obtained from Charles River Laboratories (Portage, MI). The animals are either bilaterally ovariectomized (OVX) or exposed to a Sham surgical procedure at Charles River Laboratories, and then shipped after one week. Upon arrival, they are housed in metal hanging cages in groups of 3 or 4 per cage and have ad libitum access to food (calcium content approximately 0.5%) and water for one week. Room temperature is maintained at 22.2° ± 1.7° C with a minimum relative humidity of 40%. The photoperiod in the room is 12 hours light and 12 hours dark.
(§2) Dosing Regimen Tissue Collection. After a one week acclimation period (therefore, two weeks post-OVX) daily dosing with test compound is initiated. 17α-ethynyl estradiol or the test compound is given orally, unless otherwise stated, as a suspension in 1% carboxymethylcellulose or dissolved in 20% cyclodextrin. Animals were dosed daily for 4 days. Following the dosing regimen, animals are weighed and anesthetized with a ketamine: Xylazine (2:1, V:V) mixture and a blood sample is collected by cardiac puncture. The animals are then sacrificed by asphyxiation with CO2, the uterus is removed through a midline incision, and a wet uterine weight is determined.
(§3) Uterine Eosinophil Peroxidase (EPO) Assay. Uteri are kept at 4° C until time of enzymatic analysis. The uteri are then homogenized in 50 volumes of 50 mM Tris buffer (pH - 8.0) containing 0.005% Triton X-100. Upon addition of 0.01% hydrogen peroxide and 10 mM O-phenylenediamine (final concentrations) in Tris buffer, increase in absorbance is monitored for one minute at 450 nm. The presence of eosonophils in the uterus is an indication of estrogenic activity of a compound. The maximal velocity of a 15 second interval is determined over the initial, linear portion of the reaction curve.
In series [3] the test system is ovariectomized rats. The series is described as follows: Uterine weight in ovariectomized rat post-menopausal model, 4 days oral dosing. As to conditions: daily for 4 days, increase versus ovariectomized controls.
Excerpt: as §1, §2
The subject of series [4] is MCF-7 breast adenocarcinoma cells (ATCC HTB 22). The experiment in a line: MCF-7 Proliferation Assay (tritiated thymidine). Format: cell-based. The settings on record: Homo sapiens, MCF7; MCF-7 cells, 48 hours with drug, tritiated thymidine pulse 4 hours. On the procedure: MCF-7 breast adenocarcinoma cells (ATCC HTB 22) are maintained in MEM (minimal essential medium, phenol red-free, Sigma, St. Louis, MO) supplemented with 10% fetal bovine serum (FBS) (V/V), L-glutamine (2 mM), sodium pyruvate (1 mM), HEPES {(N-[2-hydroxyethyl]piperazine-N'-[2-ethanesulfonic acid]10 mM}, non-essential amino acids and bovine insulin (1 ug/mL) (maintenance medium). Ten days prior to assay, MCF-7 cells are switched to maintenance medium supplemented with 10% dextran coated charcoal stripped fetal bovine serum (DCC-FBS) assay medium) in place of 10% FBS to deplete internal stores of steroids. MCF-7 cells are removed from maintenance flasks using cell.dissociation medium (Ca++/Mg++ free HBSS (phenol red-free) supplemented with 10 mM HEPES and 2 mM EDTA). Cells are washed twice with assay medium and adjusted to 80,000 cells/mL. Approximately 100 µL (8,000 cells) are added to flat-bottom microculture wells (Costar 3596) and incubated at 37° C in a 5% CO2 humidified incubator for 48 hours to allow for cell adherence and equilibration after transfer. Serial dilutions of drugs or DMSO as a diluent control are prepared in assay medium and 50 µL transferred to triplicate microcultures followed by 50 µL assay medium for a final volume of 200 µL. […] Samples are counted by liquid scintillation using a Wallac BetaPlace β counter. […]

The subject of series [5] is Uterine Eosinophil Peroxidase (EPO). As to conditions: rat, in vivo.
Excerpt: as §1, §2, §3
The next series in a line: physchem. The settings on record: 66% dmf.

Read-outs that look alike come from different tables or passages of the source. Marks after values point to notes of the source that are not given here.

Excerpt for Serum cholesterol: as §1, §2
Cholesterol Analysis. Blood samples are allowed to clot at room temperature for 2 hours, and serum is obtained following centrifugation for 10 minutes at 3000 rpm. Serum cholesterol is determined using a Boehringer Mannheim Diagnostics high performance cholesterol assay. Briefly the cholesterol is oxidized to cholest-4-en-3-one and hydrogen peroxide. The hydrogen peroxide is then reacted with phenol and 4-aminophenazone in the presence of peroxidase to produce a p-quinone imine dye, which is read spectrophotemetrically at 500 nm. Cholesterol concentration is then calculated against a standard curve. The entire assay is automated using a Biomek Automated Workstation.

On to `C#C[C@]1(O)CC[C@H]2[C@@H]3CCc4cc(O)ccc4[C@H]3CC[C@@]21C` [EE2, 17α-ethynyl estradiol, reference compound], for which the “Serum Cholest. % Dec.” value with Serum cholesterol (0.1 mg/kg) is 87.3* %. Moreover, the “bone loss (femur density)” value with ovariectomized rats [1] is “prevented this loss”. Moreover, the “Uterine Eosinophil (Vmax)” value in series [2] (0.1 mg/kg) was 205.8*. Moreover, the “eosinophil infiltration into the uterus” value in series [2] (result in words, stromal layer of ovariectomized rat uteri) is “substantial and expected increase”. In the series on ovariectomized rats [3] (0.1 mg/kg), the “Uterine Weight % Inc” value is 207.5* %.
Take `O=C(c1ccc(OCC[N+]2([O-])CCCCC2)cc1)c1c(-c2ccc(O)cc2)sc2cc(O)ccc12` [Example 1, [2-(4-Hydroxyphenyl)-6-hydroxybenzo[b]thien-3-yl][4-[2-(1-piperidinyl)ethoxy]phenyl]methanone N-oxide]: the “Serum Cholest. % Dec.” value in the series with Serum cholesterol (0.1 mg/kg) was 44.9* %; in the series on Serum cholesterol (1.0 mg/kg), 68.7* %; in the series with Serum cholesterol (10.0 mg/kg), 70.3* %. Moreover, in “pKa determination” (66% dmf), the pKa came out at 6.28. Further, the IC50 in series [4] was ~1000 nM. The “Uterine Eosinophil (Vmax)” value in series [2] (0.1 mg/kg) came to 4.4; in series [2] (1.0 mg/kg) it was 4.6; in series [2] (10.0 mg/kg), 2.5. For the same molecule, the “Uterine Weight % Inc” value with ovariectomized rats [3] (0.1 mg/kg) is on record as 31.2* %; in the series on ovariectomized rats [3] (1.0 mg/kg), 29.6* %; in the series on ovariectomized rats [3] (10.0 mg/kg), 8.3%.
Turning to `COc1ccc(-c2sc3cc(OC)ccc3c2C(=O)c2ccc(OCC[N+]3([O-])CCCCC3)cc2)cc1` [Example 2], in the series with Serum cholesterol (1.0 mg/kg), the “Serum Cholest. % Dec.” value is 65.7* %. Moreover, the “Uterine Eosinophil (Vmax)” value in series [5] stood at 11.2. Also, the pKa in “physchem” is 6.39.
The like results for `CC[N+]([O-])(CC)CCOc1ccc(C(=O)c2c(-c3ccc(O)cc3)sc3cc(O)ccc23)cc1` [Example 3, [2-(4-Hydroxyphenyl)-6-hydroxybenzo[b]thien-3-yl][4-[2-(N, N-diethyl)ethoxy]phenyl]methanone N-oxide] were, in that order, 64.2* %, 21.7* and 6.15.
Consider `O=C(c1ccc(OCC[N+]2([O-])CCOCC2)cc1)c1c(-c2ccc(O)cc2)sc2cc(O)ccc12` [Example 4, [2-(4-Hydroxyphenyl)-6-hydroxybenzo[b]thien-3-yl][4-[2-(1-morpholino)ethoxy]phenyl]methanone N-oxide], for which the “Serum Cholest. % Dec.” value in the series on Serum cholesterol (1.0 mg/kg) is listed as 56.2* %. Moreover, the “Uterine Eosinophil (Vmax)” value in series [5] was found to be 4.1.
As to `[O-][N+]1(CCOc2ccc(C(O)c3c(-c4ccc(O)cc4)sc4cc(O)ccc34)cc2)CCCCC1` (stereo not shown) [Example 6], the pKa in the series “pKa determination” stood at 6.41.
The same measure, in the same setting: the figure for `[O-][N+]1(CCOc2ccc(Cc3c(-c4ccc(O)cc4)sc4cc(O)ccc34)cc2)CCCCC1` [Example 7, [2-(4-Hydroxyphenyl)-6-hydroxybenzo[b]thien-3-yl][4-[2-(1-piperidinyl)ethoxy]phenyl]methane N-oxide] is 6.49.
As to “[2-(4-n-Butylsulfonoylphenyl)-6-n-butylsulfonoylbenzo[b]thien-3-yl][4-[2-(1-piperidinyl)ethoxy]phenyl]methanone N-oxide [Example 5]”, the “Serum Cholest. % Dec.” value with Serum cholesterol (1.0 mg/kg) is on record as 74.9* %. In addition, the “Uterine Eosinophil (Vmax)” value in series [5] was 4.7.

Source of the values: EP0791591B1, “Benzothiophenes, formulations containing same, and methods for their préparation” (ELI LILLY AND COMPANY, priority 1996, dated 1997).
